The experiment deals with human PCSK9 (Homo sapiens, UniProt Q8NBP7). The experiment can be described thus: PCSK9 ligand binding assay (TR-FRET): interference with binding of human PCSK9 to human LDLR. The settings on record: for IC50: Human PCSK9 Alexa Fluor 647 / Human LDLR extracellular domain-Europium Kryptate; for Max % inhibition: efficacy (Amax), 100% = 1 uM unlabeled human PCSK9, 0% = DMSO. Put shortly:
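Read-out was TR-FRET ratio (665 nm over 615 nm, 330 nm excitation) between Alexa Fluor 647-human PCSK9 (16 nM added) and Europium Kryptate-human LDLR ectodomain (4 nM added). Compound and PCSK9 were mixed 30 min before LDLR, then incubated 2 h. Inhibition was normalised to DMSO and unlabelled-PCSK9 controls, giving IC50 and Amax.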
(In TR-FRET formats the signal depends on donor and acceptor labels being close together.)

Data on 14 compounds can be found in patent US11813306B2, “Cyclic tetramer compounds as proprotein convertase subtilisin/kexin type 9 (PCSK9) inhibitors for the treatment of metabolic disorders” (NOVARTIS AG, priority 2018, dated 2023).

Chain of human PCSK9 (Q8NBP7 153-692): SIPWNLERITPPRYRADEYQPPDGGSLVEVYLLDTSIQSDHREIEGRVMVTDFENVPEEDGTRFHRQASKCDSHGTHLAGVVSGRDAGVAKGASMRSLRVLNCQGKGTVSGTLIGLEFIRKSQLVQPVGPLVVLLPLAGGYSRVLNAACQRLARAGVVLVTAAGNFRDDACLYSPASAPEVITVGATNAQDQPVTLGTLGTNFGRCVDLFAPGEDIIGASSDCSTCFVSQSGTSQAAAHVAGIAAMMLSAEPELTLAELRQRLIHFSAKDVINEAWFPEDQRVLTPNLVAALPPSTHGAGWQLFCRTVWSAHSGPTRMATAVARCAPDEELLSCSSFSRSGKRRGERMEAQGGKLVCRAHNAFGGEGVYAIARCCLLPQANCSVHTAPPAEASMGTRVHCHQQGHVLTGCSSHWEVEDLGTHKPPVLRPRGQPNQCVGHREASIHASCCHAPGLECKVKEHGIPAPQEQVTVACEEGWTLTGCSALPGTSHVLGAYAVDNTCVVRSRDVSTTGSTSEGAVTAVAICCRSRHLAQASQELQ
Chain of human PCSK9 (Q8NBP7 31-152 partner limits assumed): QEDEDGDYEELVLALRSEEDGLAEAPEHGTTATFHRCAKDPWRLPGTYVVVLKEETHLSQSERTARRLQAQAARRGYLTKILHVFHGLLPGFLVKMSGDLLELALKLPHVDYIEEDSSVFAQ

In general, IC50 refers to the concentration needed to halve the response being measured. A lower IC50 goes with greater potency in that assay. In the case of `CC[C@@H]1CC(=O)N(Cc2ccc(Cl)cc2Oc2ccc(-c3cnc(CN4CCCC4)n3C)cc2)[C@@H](C)C(=O)N[C@@H](CO)C(=O)N(C)[C@H](Cc2ccc(Cl)cc2)CNC1=O.Cl` [Compound 124, (2S, 5S, 8R, 12R)-1-(4-chloro-2-(4-(1-methyl-2-(pyrrolidin-1-ylmethyl)-1H-imidazol-5-yl)phenoxy)benzyl)-8-(4-chlorobenzyl)-12-ethyl-5-(hydroxymethyl)-2,7-dimethyl-1,4,7,10-tetraazacyclotetradecane-3,6,11,14-tetraone], the concentration for half-maximal inhibition (IC50) turned out to be 102 nM and the Max % inhibition came to 96.8%.

As for `COC[C@@H]1NC(=O)[C@H](CCN2CCOCC2)N(Cc2ccc(Cl)cc2Oc2ccc(-c3cnc(CN(C)C)n3C)cc2)C(=O)C[C@@H]([C@H]2CCc3ccccc32)C(=O)N(C)C[C@@H](Cc2ccc(Cl)cc2)N(C)C1=O.Cl` [Compound 125, (2S, 5S, 8R, 12S)-1-(4-chloro-2-(4-(2-((dimethylamino)methyl)-1-methyl-1H-imidazol-5-yl)phenoxy)benzyl)-8-(4-chlorobenzyl)-12-((R)-2,3-dihydro-1H-inden-1-yl)-5-(methoxymethyl)-7,10-dimethyl-2-(2-morpholinoethyl)-1,4,7,10-tetraazacyclotetradecane-3,6,11,14-tetraone], the IC50 was found to be 103 nM and the Max % inhibition came out at 92.2%.

On to `C[C@H](NCc1ccc(Cl)cc1Oc1ccc(-c2cnc(CN(C)C)n2C)cc1)C(=O)N[C@H]1COC(=O)C[C@@H](Cc2ccccc2)C(=O)N2CCC[C@@](Cc3ccc(Cl)cc3)(C2)N(C)C1=O` [Compound 126, (2S)-N-((3R, 8S, 11R)-3-benzyl-11-(4-chlorobenzyl)-10-methyl-2,5,9-trioxo-6-oxa-1,10-diazabicyclo[9.3.1]pentadecan-8-yl)-2-((4-chloro-2-(4-(2-((dimethylamino)methyl)-1-methyl-1H-imidazol-5-yl)phenoxy)benzyl)amino)propanamide], for which the half-inhibitory concentration (IC50) was found to be 612 nM and the Max % inhibition turned out to be 100.1%.

Take `COC[C@@H]1NC(=O)[C@H](CCCN2CCOCC2)N(Cc2ccc(Cl)cc2Oc2ccc(-c3cnc(CN(C)C)n3C)cc2)C(=O)C[C@@H]([C@H]2CCc3ccccc32)C(=O)N(C)C[C@@H](Cc2ccc(Cl)cc2)N(C)C1=O.Cl` [Compound 127, (2S, 5S, 8R, 12S)-1-(4-chloro-2-(4-(2-((dimethylamino)methyl)-1-methyl-1H-imidazol-5-yl)phenoxy)benzyl)-8-(4-chlorobenzyl)-12-((R)-2,3-dihydro-1H-inden-1-yl)-5-(methoxymethyl)-7,10-dimethyl-2-(3-morpholinopropyl)-1,4,7,10-tetraazacyclotetradecane-3,6,11,14-tetraone]: the 50% inhibitory concentration (IC50) was 138 nM and the Max % inhibition was determined as 94.3%.

Take `CC[C@@H]1CC(=O)N(Cc2ccc(Cl)cc2Oc2ccc(-c3cnc(CN4CCCC4)n3C)cc2)[C@@H](C)C(=O)N[C@@H](CO)C(=O)N(C)[C@H](Cc2ccc(Cl)cc2)CN(C)C1=O.Cl` [Compound 128, (2S, 5S, 8R, 12R)-1-(4-chloro-2-(4-(1-methyl-2-(pyrrolidin-1-ylmethyl)-1H-imidazol-5-yl)phenoxy)benzyl)-8-(4-chlorobenzyl)-12-ethyl-5-(hydroxymethyl)-2,7,10-trimethyl-1,4,7, 10-tetraazacyclotetradecane-3,6,11,114-tetraone]: the concentration for half-maximal inhibition (IC50) is 250 nM and the Max % inhibition came to 89.8%.

Regarding `CC(=O)C[C@@H]1NC(=O)[C@H](C)N(Cc2ccc(Cl)cc2Oc2ccc(-c3cnc(CN4CCCC4)n3C)cc2)C(=O)C[C@@H](Cc2ccccc2)C(=O)N(C)C[C@@H](Cc2ccc(Cl)cc2)N(C)C1=O.Cl` [Compound 129, (2S,5S,8R,12R)-12-benzyl-1-(4-chloro-2-(4-(1-methyl-2-(pyrrolidin-1-ylmethyl)-1H-imidazol-5-yl)phenoxy)benzyl)-8-(4-chlorobenzyl)-2,7,10-trimethyl-5-(2-oxopropyl)-1,4,7,10-tetraaza-cyclotetradecane-3,6,11,14-tetraone hydrochloride], the IC50 stood at 205 nM and the Max % inhibition is on record as 87.3%.

For `C[C@H](NCc1ccc(Cl)cc1Oc1ccc(-c2cnc(CN(C)C)n2C)cc1)C(=O)N[C@H]1COC(=O)C[C@@H](Cc2ccccc2)C(=O)N(C)[C@@]2(Cc3ccc(Cl)cc3)CCCN(C2)C1=O` [Compound 130, (2S)-N-((3S, 8R, 11R)-8-benzyl-11-(4-chlorobenzyl)-10-methyl-2,6,9-trioxo-5-oxa-1,10-diazabicyclo[9.3.1]pentadecan-3-yl)-2-((4-chloro-2-(4-(2-((dimethylamino)methyl)-1-methyl-1H-imidazol-5-yl)phenoxy)benzyl)amino)propanamide], the 50% inhibitory concentration (IC50) is 879 nM and the Max % inhibition worked out at 99.3%.

Take `COC[C@@H]1NC(=O)[C@H](CCCCN2CCOCC2)N(Cc2ccc(Cl)cc2Oc2ccc(-c3cnc(CN(C)C)n3C)cc2)C(=O)C[C@@H]([C@H]2CCc3ccccc32)C(=O)N(C)C[C@@H](Cc2ccc(Cl)cc2)N(C)C1=O.Cl` [Compound 131, (2S, 5S, 8R, 12S)-1-(4-chloro-2-(4-(2-((dimethylamino)methyl)-1-methyl-1H-imidazol-5-yl)phenoxy)benzyl)-8-(4-chlorobenzyl)-12-((R)-2,3-dihydro-1H-inden-1-yl)-5-(methoxymethyl)-7,10-dimethyl-2-(4-morpholinobutyl)-1,4,7,10-tetraazacyclotetradecane-3,6,11,14-tetraone]: the IC50 amounted to 281 nM and the Max % inhibition is on record as 91.9%.

For the compound `COC[C@@H]1NC(=O)[C@H](CCC(=O)N2CCC2)N(Cc2ccc(Cl)cc2Oc2ccc(-c3cnc(CN4CCCC4)n3C)cc2)C(=O)C[C@@H]([C@H]2CC(C)(C)c3ccccc32)C(=O)N(C)C[C@@H](Cc2ccc(Cl)cc2)N(C)C1=O.Cl` [Compound 132, (2S,5S,8R,12S)-2-(3-(azetidin-1-yl)-3-oxopropyl)-1-(4-chloro-2-(4-(1-methyl-2-(pyrrolidin-1-ylmethyl)-1H-imidazol-5-yl)phenoxy)benzyl)-8-(4-chlorobenzyl)-12-((R)-3,3-dimethyl-2,3-dihydro-1H-inden-1-yl)-5-(methoxymethyl)-7,10-dimethyl-1,4,7,10-tetraazacyclotetradecane-3,6,11,14-tetraone hydrochloride], the half-maximal inhibitory concentration (IC50) came to 231 nM and the Max % inhibition was found to be 100.3%.

For the compound `COC[C@@H]1NC(=O)[C@H](C)N(Cc2ccc(Cl)cc2Oc2ccc(-c3cnc(CN4CCCC4)n3C)cc2)C(=O)C[C@@H](N(C)C)C(=O)N(C)C[C@@H](Cc2ccc(Cl)cc2)N(C)C1=O.Cl` [Compound 134, (2S, 5S, 8R, 12R)-1-(4-chloro-2-(4-(1-methyl-2-(pyrrolidin-1-ylmethyl)-1H-imidazol-5-yl)phenoxy)benzyl)-8-(4-chlorobenzyl)-12-(dimethylamino)-5-(methoxymethyl)-2,7,10-trimethyl-1,4,7,10-tetraazacyclotetradecane-3,6,11,14-tetraone], the half-inhibitory concentration (IC50) worked out at 490 nM and the Max % inhibition worked out at 93.6%.

As for `C[C@H]1C(=O)N[C@@H](CC(=O)O)C(=O)N(C)[C@H](Cc2ccc(Cl)cc2)CN(C)C(=O)[C@H](Cc2ccccc2)CC(=O)N1Cc1ccc(Cl)cc1Oc1ccc(-c2cnc(CN3CCCC3)n2C)cc1.Cl` [Compound 135, 2-((2S, 5S, 8R, 12R)-12-benzyl-1-(4-chloro-2-(4-(1-methyl-2-(pyrrolidin-1-ylmethyl)-1H-imidazol-5-yl)phenoxy)benzyl)-8-(4-chlorobenzyl)-2,7,10-trimethyl-3,6,11,14-tetraoxo-1,4,7,10-tetraazacyclotetradecan-5-yl)acetic acid], the IC50 was 631 nM and the Max % inhibition is 91.3%.

In the case of `COC[C@@H]1NC(=O)[C@H](C)N(Cc2c(F)cc(Cl)cc2Oc2ccc(-c3cnc(CNC(C)(C)C)n3C)cc2)C(=O)C[C@@H](CC(F)(F)F)C(=O)N2CCC[C@@](Cc3ccc(Cl)cc3)(C2)N(C)C1=O` [Compound 136, (3S,7S,10S,13R)-6-(2-(4-(2-((tert-Butylamino)methyl)-1-methyl-1H-imidazol-5-yl)phenoxy)-4-chloro-6-fluorobenzyl)-13-(4-chlorobenzyl)-10-(methoxymethyl)-7,12-dimethyl-3-(2,2,2-trifluoroethyl)-1,6,9,12-tetraazabicyclo[11.3.1]heptadecane-2,5,8,11-tetraone], the 50% inhibitory concentration (IC50) came to 0.26 nM and the Max % inhibition is given as 113.0%.

`COC[C@@H]1NC(=O)[C@H](C)N(Cc2c(F)cc(Cl)cc2Oc2ccc(-c3cnc(CN(C)C(C)(C)C)n3C)cc2)C(=O)C[C@@H](CC(F)(F)F)C(=O)N2CCC[C@@](Cc3ccc(Cl)cc3)(C2)NC1=O` [Compound 137, (3S,7S,10S,13R)-6-(2-(4-(2-((tert-Butyl(methyl)amino)methyl)-1-methyl-1H-imidazol-5-yl)phenoxy)-4-chloro-6-fluorobenzyl)-13-(4-chlorobenzyl)-10-(methoxymethyl)-7-methyl-3-(2,2,2-trifluoroethyl)-1,6,9,12-tetraazabicyclo[11.3.1]heptadecane-2,5,8,11-tetraone]: the IC50 came out at 0.3 nM and the Max % inhibition stood at 113.0%.

As to `COC[C@@H]1NC(=O)[C@H](C)N(Cc2c(F)cc(Cl)cc2Oc2ccc(-c3cnc(CNC(C)(C)C)n3C)cc2)C(=O)C[C@@H](CC(F)(F)F)C(=O)N2CCC[C@@](Cc3ccc(Cl)cc3)(C2)NC1=O` [Compound 138, (3S, 7S, 10S, 13R)-6-(2-(4-(2-((tert-butylamino)methyl)-1-methyl-1H-imidazol-5-yl)phenoxy)-4-chloro-6-fluorobenzyl)-13-(4-chlorobenzyl)-10-(methoxymethyl)-7-methyl-3-(2,2,2-trifluoroethyl)-1,6,9,12-tetraazabicyclo[11.3.1]heptadecane-2,5,8,11-tetraone], the IC50 was 0.18 nM and the Max % inhibition came to 114.0%.
